Article PMC5719086, “Effective in vivo gene delivery with reduced toxicity, achieved by charge and fatty acid -modified cell penetrating peptide” (Scientific Reports, 2017)
Like-named read-outs stand apart in the source and are kept apart here. Square brackets hold non-standard residues; d marks the D form. Peptide text beside a SMILES is read from it. * marks the point of attachment. Docosanoyl = CCCCCCCCCCCCCCCCCCCCCC(=O)*; Stearoyl = CCCCCCCCCCCCCCCCCC(=O)*; Decanoyl = CCCCCCCCCC(=O)*; Orn = NCCC[C@H](N)C(=O)O

Columns and labels:
[1] = Complex stability in FBS, gel shift assay; details: 37 °C; for pDNA migration from complexes after 48 h in serum (in words): serum and/or triton + heparin dissociation
Protocol: Then the samples were mixed with the DNA loading dye and electrophoresed exactly as stated above in the Gel shift assay description, using 0.1 µg of pDNA per lane. ZipRuler Express DNA Ladder 2 (ThermoFisher Scientific) was added to each gel.
The stability of the complexes after incubation in FBS, visualized by gel shift assay.

[2] = tested on: mouse RBC; test: Hemolysis assay (activity towards cell membranes); format: cell-based; details: 1 h 37 °C, triplicates
Protocol: The ability of the peptides to lyse the red blood cells (RBC) in PBS was used as a measure of membrane activity. To obtain fresh mouse RBC, blood was collected from the saphenous vein using sodium-heparinized (80 iu/ml ± 30%) blood collection capillaries (Marienfeld, Germany) and transferred to heparinized blood collecting tubes (Sarstedt, Germany). To isolate RBCs, the whole blood was centrifuged for 15 minutes at 300 × g, followed by removal of the plasma. The RBCs were then washed three times with 1 × PBS (RBC pelleting with 15 minutes at 300 × g). The resulting RBCs were then resuspended in PBS at 4% (v/v).
For the analysis, 200 μl of RBC suspension was added to 200 μl of peptide solution or peptide/pDNA complexes in 5% glucose (final RBC concentration 2%) and gently vortexed. The peptide/pDNA complexes were prepared using a fixed 1 μg of pDNA and varying amount of the peptide. Following this, samples were incubated for 1 hour at 37 °C with gentle stirring. After incubation, the RBCs were pelleted (15 minutes at 300 × g) and the amount of hemoglobin in the supernatant was assessed by measuring the absorbance at 540 nm using a 96-well microplate reader. The experiments were conducted in triplicates.
100% of hemolysis was defined as the RBCs treated with 0.1% Triton-X100 in PBS and 0% was obtained with cells incubated in 5% glucose solution. % of hemolysis was calculated by the formula: % Hemolysis = [(Asample − Aglucose)/Atriton − Aglucose)] × 100.

[3] = biological target: T1, proteinase K (Parengyodontium album, UniProt P06873); test: Proteinase K treatment of CPP/pDNA complexes; format: in vitro ADME; details: 26 °C; for stability of the complexes against proteinase K (in words): CPP/pDNA complexes at N/P2, accessible pDNA over time by intercalating dye; for Proteinase K: t1/2 (min) of the complexed pDNA (95%CI): CPP/pDNA complexes at N/P2 in MQ, proteinase K ~2.4 U per well, accessible pDNA by PicoGreen fluorescence, normalized to free pDNA
T1 construct: purchased Thermo Scientific
Protocol: For the proteinase K treatment, 30 μl of pre-formed CPP/pDNA complex solution (0.3, 0.2, 0.1 and 0.05 µg of pDNA per sample) or CPP in MQ was transferred to a black 96-well plate and 90 µl of MQ was added. After a short period of mixing, fluorescent DNA intercalating dye dilution was added (Quant-iT™ PicoGreen®, ThermoFisher Scientific) and incubated for 5 minutes at room temperature. The fluorescence was measured (Synergy MX, BioTek; λex 492 and λem 535) to quantify the initial accessibility of pDNA. Thereafter 10 μl of Proteinase K (Thermo Scientific) was added with the final enzyme concentration ~2.4 U per well. Fluorescence was measured over an indicated period at 26 °C. The readings were normalized against the fluorescence of free pDNA.

[4] = naked peptide in 5% glucose, mouse RBC 2% final in PBS, hemoglobin absorbance 540 nm, 100% = 0.1% Triton X-100, read-out: EC50 (μM) of CPP (membrane activity, concentration required to lyse 50% of the cells)
[5] = peptide/pDNA complexes, fixed 1 μg pDNA and varying peptide, mouse RBC 2% final, absorbance 540 nm, read-out: EC50 (μM) of CPP/pDNA (membrane activity)

T1 sequence (P06873 106-384): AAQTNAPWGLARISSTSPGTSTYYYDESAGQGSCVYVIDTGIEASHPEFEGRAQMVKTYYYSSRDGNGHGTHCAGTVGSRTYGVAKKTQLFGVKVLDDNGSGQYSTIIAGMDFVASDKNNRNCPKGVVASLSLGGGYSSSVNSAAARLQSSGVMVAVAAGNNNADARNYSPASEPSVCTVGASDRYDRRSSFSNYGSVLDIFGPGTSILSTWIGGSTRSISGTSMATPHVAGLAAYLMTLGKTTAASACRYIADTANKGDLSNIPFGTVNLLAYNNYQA

Row | SMILES | time to pDNA degradation (DNA smear) in serum ([1]; 50% FBS, EtBr) | onset of DNA migration from complexes in serum ([1]; complexes N/P2 (jetPEI N/P8) in 50% FBS, EtBr) [h] | EC50 [2, 4] [µM] | EC50 [2, 5] [µM] | stability of the complexes against proteinase K (in words) [3] | Proteinase K: t1/2 (min) of the complexed pDNA (95%CI) [3] | pDNA migration from complexes after 48 h in serum (in words) ([1]; 50% FBS)
1 | CC(C)C[C@H](NC(=O)[C@H](CC(C)C)NC(=O)[C@H](CCCN)NC(=O)[C@H](CCCN)NC(=O)[C@H](CC(C)C)NC(=O)[C@H](C)NC(=O)[C@H](C)NC(=O)[C@H](C)NC(=O)[C@H](C)NC(=O)[C@H](CC(C)C)NC(=O)[C@H](CCCN)NC(=O)[C@H](CCCN)NC(=O)[C@H](CC(C)C)NC(=O)[C@H](CC(C)C)NC(=O)[C@H](CCCCN)NC(=O)CNC(=O)[C@H](CC(C)C)NC(=O)[C@H](CC(C)C)NC(=O)[C@H](Cc1ccc(O)cc1)NC(=O)CNC(=O)[C@H](C)N)C(N)=O [C0-PF14] (H-AGYLLGKLL[Orn][Orn]LAAAAL[Orn][Orn]LL-NH2) | about 24 h | ≤ 0.5 | 5.36 | 7.09 | clearly a favorable substrate to the proteinase | 0.5 (−0.8 ± 1.5) min | 
2 | CCCCCCCCCC(=O)N[C@@H](C)C(=O)NCC(=O)N[C@@H](Cc1ccc(O)cc1)C(=O)N[C@@H](CC(C)C)C(=O)N[C@@H](CC(C)C)C(=O)NCC(=O)N[C@@H](CCCCN)C(=O)N[C@@H](CC(C)C)C(=O)N[C@@H](CC(C)C)C(=O)N[C@@H](CCCN)C(=O)N[C@@H](CCCN)C(=O)N[C@@H](CC(C)C)C(=O)N[C@@H](C)C(=O)N[C@@H](C)C(=O)N[C@@H](C)C(=O)N[C@@H](C)C(=O)N[C@@H](CC(C)C)C(=O)N[C@@H](CCCN)C(=O)N[C@@H](CCCN)C(=O)N[C@@H](CC(C)C)C(=O)N[C@@H](CC(C)C)C(N)=O [C10-PF14] (Decanoyl-AGYLLGKLL[Orn][Orn]LAAAAL[Orn][Orn]LL-NH2) |  |  | 0.36 | 0.86 |  | 26.7 (20.1 ± 32.5) min | less migration and less degradation
3 | CCCCCCCCCCCCCCCCCCCCCC(=O)N[C@@H](C)C(=O)NCC(=O)N[C@@H](Cc1ccc(O)cc1)C(=O)N[C@@H](CC(C)C)C(=O)N[C@@H](CC(C)C)C(=O)NCC(=O)N[C@@H](CCCCN)C(=O)N[C@@H](CC(C)C)C(=O)N[C@@H](CC(C)C)C(=O)N[C@@H](CCCN)C(=O)N[C@@H](CCCN)C(=O)N[C@@H](CC(C)C)C(=O)N[C@@H](C)C(=O)N[C@@H](CCCN)C(=O)N[C@@H](CCCN)C(=O)N[C@@H](C)C(=O)N[C@@H](CC(C)C)C(=O)N[C@@H](CCCN)C(=O)N[C@@H](CCCN)C(=O)N[C@@H](CC(C)C)C(=O)N[C@@H](CC(C)C)C(N)=O [C22-PF14-O] (Docosanoyl-AGYLLGKLL[Orn][Orn]LA[Orn][Orn]AL[Orn][Orn]LL-NH2) |  |  |  |  | virtually inaccessible to the enzyme |  | migration of pDNA from some of the complexes could be observed
4 | CCCCCCCCCCCCCCCCCCCCCC(=O)N[C@@H](C)C(=O)NCC(=O)N[C@@H](Cc1ccc(O)cc1)C(=O)N[C@@H](CC(C)C)C(=O)N[C@@H](CC(C)C)C(=O)NCC(=O)N[C@@H](CCCCN)C(=O)N[C@@H](CC(C)C)C(=O)N[C@@H](CC(C)C)C(=O)N[C@@H](CCCN)C(=O)N[C@@H](CCCN)C(=O)N[C@@H](CC(C)C)C(=O)N[C@@H](C)C(=O)N[C@@H](C)C(=O)N[C@@H](C)C(=O)N[C@@H](C)C(=O)N[C@@H](CC(C)C)C(=O)N[C@@H](CCCN)C(=O)N[C@@H](CCCN)C(=O)N[C@@H](CC(C)C)C(=O)N[C@@H](CC(C)C)C(N)=O [C22-PF14] (Docosanoyl-AGYLLGKLL[Orn][Orn]LAAAAL[Orn][Orn]LL-NH2) |  |  | 0.64 | 1.47 |  | 162.7 (159.6 ± 166.7) min | less migration and less degradation
5 | CCCCCCCCCCCCCCCCCC(=O)N[C@@H](C)C(=O)NCC(=O)N[C@@H](Cc1ccc(O)cc1)C(=O)N[C@@H](CC(C)C)C(=O)N[C@@H](CC(C)C)C(=O)NCC(=O)N[C@@H](CCCCN)C(=O)N[C@@H](CC(C)C)C(=O)N[C@@H](CC(C)C)C(=O)N[C@@H](CCC(=O)O)C(=O)N[C@@H](CCCN)C(=O)N[C@@H](CC(C)C)C(=O)N[C@@H](C)C(=O)N[C@@H](C)C(=O)N[C@@H](C)C(=O)N[C@@H](C)C(=O)N[C@@H](CC(C)C)C(=O)N[C@@H](CCCN)C(=O)N[C@@H](CCCN)C(=O)N[C@@H](CC(C)C)C(=O)N[C@@H](CC(C)C)C(N)=O [PF14-E] (Stearoyl-AGYLLGKLLE[Orn]LAAAAL[Orn][Orn]LL-NH2) |  |  | 0.67 | 2.36 |  | 16.7 (10.5 ± 21.8) min | 
6 | CCCCCCCCCCCCCCCCCC(=O)N[C@@H](C)C(=O)NCC(=O)N[C@@H](Cc1ccc(O)cc1)C(=O)N[C@@H](CC(C)C)C(=O)N[C@@H](CC(C)C)C(=O)NCC(=O)N[C@@H](CCCCN)C(=O)N[C@@H](CC(C)C)C(=O)N[C@@H](CC(C)C)C(=O)N[C@@H](CCCN)C(=O)N[C@@H](CCCN)C(=O)N[C@@H](CC(C)C)C(=O)N[C@@H](C)C(=O)N[C@@H](CCCN)C(=O)N[C@@H](CCCN)C(=O)N[C@@H](C)C(=O)N[C@@H](CC(C)C)C(=O)N[C@@H](CCCN)C(=O)N[C@@H](CCCN)C(=O)N[C@@H](CC(C)C)C(=O)N[C@@H](CC(C)C)C(N)=O [PF14-O] (Stearoyl-AGYLLGKLL[Orn][Orn]LA[Orn][Orn]AL[Orn][Orn]LL-NH2) |  |  | 0.6 | 1.17 |  | 94.2 (90.7 ± 97.4) min | migration of pDNA from some of the complexes could be observed
